Laboratory results published in the supplement of paper PMC10307832.

Key:
Assay in all cases: relative viability (nuclei count vs DMSO), 5 days (fraction); higher = more cells survive
[1] = compound: CCCS(=O)(=O)Nc1ccc(F)c(C(=O)c2c[nH]c3ncc(-c4ccc(Cl)cc4)cc23)c1F [Vemurafenib] + Nc1ncn([C@H]2C[C@H](O)[C@@H](CO)O2)c(=O)n1 [Decitabine] (partner 2 µM)
In short: (§1)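 Lung cancer cell lines in 1536-well plates got either a single drug or a fixed anchor-drug dose together with five library-drug doses (not always all listed) in √10 steps, by pin tool, on the day after seeding. Nuclei were counted after 5 days, and relative viability is the treated-to-vehicle ratio of nuclei counts. Values are medians of duplicate plates.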

[2] = compound: CCCS(=O)(=O)Nc1ccc(F)c(C(=O)c2c[nH]c3ncc(-c4ccc(Cl)cc4)cc23)c1F [Vemurafenib] + CC(C)C[C@H](NC(=O)[C@H](Cc1ccccc1)NC(=O)c1cnccn1)B(O)O [Bortezomib] (partner 0.002 µM)
In short: as §1

[3] = compound: COc1cccc2cc(-c3nc([C@H]4CC[C@H](C(=O)O)CC4)n4ncnc(N)c34)[nH]c12 [OSI-027] + O=C(CCCCCCC(=O)Nc1ccccc1)NO [Vorinostat] (partner 1 µM)
In short: as §1

[4] = compound: CCCS(=O)(=O)Nc1ccc(F)c(C(=O)c2c[nH]c3ncc(-c4ccc(Cl)cc4)cc23)c1F [Vemurafenib] + NC(=O)Nc1cc(-c2cccc(F)c2)sc1C(=O)N[C@H]1CCCNC1 [AZD7762] (partner 0.2 µM)
In short: as §1

Cell Line | relative viability ([1]; first compound 0.03162 µM) | relative viability ([1]; first compound 0.1 µM) | relative viability ([1]; first compound 0.3162 µM) | relative viability ([1]; first compound 1 µM) | relative viability ([2]; first compound 0.03162 µM) | relative viability ([2]; first compound 0.1 µM) | relative viability ([2]; first compound 0.3162 µM) | relative viability ([2]; first compound 1 µM) | relative viability ([3]; first compound 0.01 µM) | relative viability ([3]; first compound 0.03162 µM) | relative viability ([3]; first compound 0.1 µM) | relative viability ([3]; first compound 0.3162 µM) | relative viability ([3]; first compound 1 µM) | relative viability ([4]; first compound 0.03162 µM) | relative viability ([4]; first compound 0.1 µM) | relative viability ([4]; first compound 0.3162 µM) | relative viability ([4]; first compound 1 µM)
A549 | 0.163 | 0.227 | 0.155 | 0.224 |  |  |  |  |  |  |  |  |  |  |  |  | 
COR-L23 | 0.417 | 0.464 | 0.336 | 0.424 | 0.925 | 0.941 | 0.832 | 0.912 | 0.524 | 0.436 | 0.403 | 0.408 | 0.297 |  |  |  | 
COR-L 105 | 0.556 |  | 0.645 | 0.651 | 0.772 |  | 0.485 | 0.759 | 0.552 | 0.727 | 0.879 | 0.617 | 0.605 |  |  |  | 
Calu-6 |  |  |  |  | 0.897 | 0.939 | 0.96 | 0.832 |  |  |  |  |  |  |  |  | 
EBC-1 |  |  |  |  | 0.453 | 0.553 | 0.622 | 0.741 |  |  |  |  |  |  |  |  | 
IA-LM |  |  |  |  | 0.802 | 0.764 | 0.822 | 0.598 | 0.997 | 0.388 | 0.652 | 0.479 | 0.15 |  |  |  | 
LK-2 | 0.243 | 0.342 | 0.321 | 0.254 |  |  |  |  | 0.272 | 0.296 | 0.244 | 0.176 | 0.179 | 0.397 | 0.428 | 0.406 | 0.312
NCI-H358 | 0.211 | 0.228 | 0.226 | 0.229 |  |  |  |  | 0.751 | 0.653 | 0.717 | 0.664 | 0.503 | 0.551 |  | 0.621 | 0.632
NCI-H520 | 0.463 | 0.482 | 0.479 | 0.519 | 0.46 | 0.487 | 0.722 | 0.454 | 0.729 | 0.712 | 0.693 | 0.557 | 0.368 |  |  |  | 
NCI-H522 | 0.668 | 0.607 | 0.624 | 0.692 |  |  |  |  | 0.768 | 1.02 | 0.883 | 0.686 | 0.638 | 0.797 | 0.855 | 0.755 | 0.869
NCI-H661 | 0.521 | 0.495 | 0.567 | 0.625 | 0.877 | 0.663 | 0.765 | 0.778 | 0.806 | 0.801 | 0.759 | 0.717 | 0.458 |  |  |  | 
NCI-H1299 |  |  |  |  | 0.998 | 0.976 | 0.918 | 1 |  |  |  |  |  |  |  |  | 
NCI-H1395 | 0.726 | 0.698 | 0.706 | 0.72 |  |  |  |  | 0.633 | 0.745 | 0.476 | 0.645 | 0.567 | 0.397 | 0.411 | 0.381 | 0.373
NCI-H1563 |  |  |  |  | 0.855 | 0.658 | 0.762 | 0.846 |  |  |  |  |  |  |  |  | 
NCI-H1648 |  | 0.351 | 0.762 | 0.463 |  |  |  |  | 0.369 | 0.323 |  | 0.477 | 0.236 |  | 0.571 | 1.23 | 0.779
NCI-H1650 | 0.348 | 0.499 | 0.413 | 0.461 | 0.223 |  | 0.208 | 0.217 | 0.56 | 0.515 | 0.532 | 0.407 | 0.358 |  |  |  | 
NCI-H1793 | 0.449 | 0.325 | 0.672 | 0.492 |  |  |  |  | 0.713 | 0.777 | 0.444 | 0.377 | 0.281 | 0.445 | 0.243 | 0.131 | 0.492
NCI-H1944 | 0.488 |  | 0.45 | 0.456 |  |  |  |  | 0.571 | 0.543 | 0.575 | 0.431 | 0.378 | 0.515 |  | 0.426 | 0.57
NCI-H2009 | 0.394 | 0.341 | 0.341 | 0.438 | 0.944 | 0.922 | 0.583 | 0.778 | 0.735 | 0.718 | 0.708 | 0.675 | 0.588 |  |  |  | 
NCI-H2023 | 0.228 | 0.224 | 0.257 | 0.246 | 0.869 | 0.948 | 0.859 | 0.943 | 0.7 | 0.698 | 0.526 | 0.581 | 0.34 |  |  |  | 
NCI-H2170 | 0.435 |  | 0.441 | 0.455 |  |  |  |  | 0.779 | 0.814 | 0.806 | 0.662 | 0.454 | 0.774 |  | 0.685 | 0.766
NCI-H2228 |  |  |  |  | 1.03 | 1 | 1.24 | 1.15 | 0.509 | 0.511 | 0.528 | 0.564 | 0.45 |  |  |  | 
NCI-H2342 | 0.705 | 0.702 | 0.773 | 0.706 |  |  |  |  | 0.715 | 0.611 | 0.683 | 0.768 | 0.547 | 0.462 | 0.499 | 0.47 | 0.518
SK-LU-1 | 0.638 | 0.588 | 0.504 | 0.56 | 0.86 | 1.05 |  | 1.14 | 0.809 | 0.618 | 0.682 | 0.563 | 0.411 |  |  |  | 
SK-MES-1 | 0.384 | 0.334 | 0.38 | 0.386 |  |  |  |  | 1.21 | 1.08 | 0.972 | 0.913 | 0.593 |  |  |  | 
SW 900 | 0.428 | 0.346 | 0.439 | 0.466 |  |  |  |  | 0.545 | 0.592 | 0.386 | 0.421 | 0.206 | 0.575 | 0.469 | 0.618 | 0.563
SW 1573 | 0.386 | 0.442 | 0.484 | 0.452 | 0.896 | 0.945 | 1.03 | 1.07 | 0.818 | 0.718 | 0.669 | 0.728 | 0.393 |  |  |  | 
